Values of other authors as cited in patent publication US20140271927A1, “COMPOSITION AND METHOD FOR TREATING NEUROPATHY” (priority 2013, published 2014).

Conditions: published studies reviewed

For `[Cr]` [chromium], the “lowering the HbgAlc” value is given as 1-2%.
